Molecular target: T1, Human DGAT1 (Homo sapiens, UniProt O75907)
T1 construct: made in house; host or cells: Sf9 insect cells (baculovirus); microsomes
T1 sequence (O75907 1-488): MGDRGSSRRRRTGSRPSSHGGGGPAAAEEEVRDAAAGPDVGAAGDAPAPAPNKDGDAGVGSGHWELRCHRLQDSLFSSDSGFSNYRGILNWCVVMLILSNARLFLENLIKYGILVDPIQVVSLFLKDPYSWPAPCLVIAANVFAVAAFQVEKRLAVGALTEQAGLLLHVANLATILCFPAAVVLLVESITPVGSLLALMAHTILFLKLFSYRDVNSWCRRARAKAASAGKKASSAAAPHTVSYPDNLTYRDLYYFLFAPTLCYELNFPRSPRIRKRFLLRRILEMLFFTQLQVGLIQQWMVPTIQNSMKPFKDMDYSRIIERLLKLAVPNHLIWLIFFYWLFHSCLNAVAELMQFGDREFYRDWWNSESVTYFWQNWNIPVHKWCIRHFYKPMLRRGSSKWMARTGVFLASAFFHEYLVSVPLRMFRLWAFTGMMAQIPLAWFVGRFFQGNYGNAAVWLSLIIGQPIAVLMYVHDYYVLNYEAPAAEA
Test: hDGAT1 lipid extraction (LE) assay, inhibition of triacylglycerol product formation
Format: biochemical
Settings: human DGAT1 microsomes from Sf9 cells; radiolabelled tridecanoylglycerol extraction
Method: Human DGAT1 was expressed in Sf9 insect cells using a baculovirus expression system. Microsomes were prepared and used as enzyme for in vitro inhibition testing in either of two formats measuring production of coenzyme A or tridecanoylglycerol product, respectively. All steps were performed at 21-23° C. All data for DGAT1 inhibition by test compounds were collected under conditions where product formation was linear with reaction time.
For inhibition of triacylglycerol product formation, 11 uL reactions were run in white Polyplate-384 (PerkinElmer6007300) starting with a 30 minute pre-reaction incubation of 5 uL of 2.2× enzyme and 1 uL of 100% DMSO containing test compound or control compound, {4-[4-(4-amino-7,7-dimethyl-7H-pyrimido[4,5-b][1,4]oxazin-6-yl)phenyl]cyclohexyl}acetic acid. Some assays were performed with inclusion of didecanoylglycerol in the pre-reaction incubation of test compounds and enzyme. Reactions were initiated after 30 minute pre-reaction incubation via addition of 5 uL of 2.2× substrate. Final reaction conditions consisted of 50 mM HEPES pH 7.5, 2 mM MgCl2, 1 mM CHAPS, 25 uM didecanoylglycerol, 0.5 uM decanoyl-CoA, 0.3 nCi/uL [^14C]-decanoyl-CoA or 0.5 nCi/uL [^3H]-decanoyl-CoA, 0.05-4 ug/mL microsomal protein, and 1% DMSO. Following 60 minute reaction incubation, reactions were stopped with 40 uL of 45% isopropanol and 50 mM sodium carbonate in water and mixed. Extraction of tridecanoylglycerol product was accomplished via addition of 30 uL Microscint-E (Perkin Elmer) and 2 hours of incubation (sealed). Plates were read on a Microbeta Microplate reader. Inhibition was normalized to controls containing DMSO or 10 uM {4-[4-(4-amino-7,7-dimethyl-7H-pyrimido[4,5-b][1,4]oxazin-6-yl)phenyl]cyclohexyl}acetic acid. IC50s were fitted using GraphPad Prism to a sigmoidal dose response.

| IC50 [nM] | SMILES |
| --- | --- |
| 201 | Nc1ncnc2c1C(=O)N(c1ccc3ncn(Cc4ccccc4)c(=O)c3c1)CCO2 [Example 97, 4-Amino-6-(3-benzyl-4-oxo-3,4-dihydroquinazolin-6-yl)-7,8-dihydropyrimido[5,4-f][1,4]oxazepin-5(6H)-one] |
| 2.1 | Nc1ncnc2c1C(=O)N(c1cnc3c(ccn3-c3cccc(C(F)(F)F)c3)c1)CCO2 [Example 81, 4-amino-6-{1-[3-(trifluoromethyl)phenyl]-1H-pyrrolo[2,3-b]pyridin-5-yl}-5H,6H,7H,8H-pyrimido[5,4-f][1,4]oxazepin-5-one] |

Source: patent US9540400B2, “Compounds as diacylglycerol acyltransferase inhibitors” (GlaxoSmithKline Intellectual Property (No. 2) Limited, priority 2011, dated 2017)
